Patent US10105357B2, “Indication of antibiotic drugs for preparation of cancer inhibition pharmaceutical composition” (LAUNX BIOMEDICAL CO., LTD., priority 2014, dated 2018)
Counter-ions that a name gives are not always drawn. Like-named read-outs stand apart in the source and are kept apart here.

How the values were obtained:
[1] = system: MCF7 (Mammary Gland, Adenocarcinoma); test: Cell viability analysis, breast cancer MCF7; type: cell-based, human; details: Homo sapiens, MCF7, 72 h
[2] = system: 786-O (Renal adenocarcinoma); test: Cell viability analysis, renal cancer 786-O; type: cell-based, human; details: Homo sapiens, 786-0, 72 h; 786-O; repeated experiment; read-out: The results of antibiotic drug inhibiting cancer cell lines (cell viability analysis), 786-O
TOV-21G = test: Cell viability analysis, ovarian cancer TOV-21G; type: cell-based, human; details: Homo sapiens, TOV21G, 72 h; TOV-21G; repeated experiment; read-out: The results of antibiotic drug inhibiting cancer cell lines (cell viability analysis), TOV-21G
[3] = system: HL-60 (Acute Promyelocytic Leukemia); test: Cell viability analysis, leukemia HL-60; type: cell-based, human; details: Homo sapiens, HL-60, 72 h, drug 10 μM, 72 hours, WST-1, OD450 nm; read-out: cell viability (survival rate), HL-60
[4] = system: TSGH-8301 (Urinary Bladder Carcinoma); test: Cell viability analysis, bladder cancer TSGH-8301; type: cell-based, human; details: Homo sapiens, 72 h
[5] = system: MDA-MB-231 (Mammary Gland, Adenocarcinoma); test: Cell viability analysis, breast cancer MDA-MB-231; type: cell-based, human; details: Homo sapiens, MDA-MB-231, 72 h; MDA-MB231; repeated experiment; read-out: The results of antibiotic drug inhibiting cancer cell lines (cell viability analysis), MDA-MB231
[6] = system: PC3 (p53−) (Prostate Adenocarcinoma); test: Cell viability analysis, prostate cancer PC3; type: cell-based, human; details: Homo sapiens, 72 h
NIH: OVCAR-3 = test: Cell viability analysis, ovarian cancer NIH: OVCAR-3; type: cell-based, human; details: Homo sapiens, 72 h; NIH-OVCAR-3; repeated experiment; read-out: The results of antibiotic drug inhibiting cancer cell lines (cell viability analysis), NIH-OVCAR-3
AsPC-1 = test: Cell viability analysis, pancreatic cancer AsPC-1; type: cell-based, human; details: Homo sapiens, ASPC1, 72 h; AsPC-1; repeated experiment; read-out: The results of antibiotic drug inhibiting cancer cell lines (cell viability analysis), AsPC-1
T24 = test: Cell viability analysis, bladder cancer T24; type: cell-based, human; details: Homo sapiens, T-24, 72 h; T24; repeated experiment; read-out: The results of antibiotic drug inhibiting cancer cell lines (cell viability analysis), T24
[7] = system: Hep3B (hepatocellular carcinoma); test: Cell viability analysis, hepatic cancer Hep3B; type: cell-based, human; details: Homo sapiens, 72 h; Hep3B; repeated experiment; read-out: The results of antibiotic drug inhibiting cancer cell lines (cell viability analysis), Hep3B
[8] = system: A375 (Amelanotic Melanoma); test: Cell viability analysis, skin cancer A375; type: cell-based, human; details: Homo sapiens, A-375, 72 h
[9] = system: AGS (Gastric Adenocarcinoma); test: Cell viability analysis, gastric cancer AGS; type: cell-based, human; details: Homo sapiens, 72 h
[10] = system: HCT116 (p53+) (Colorectal Carcinoma)
cancer cell lines = test: Cell viability analysis (WST-1) on cancer cell lines; type: cell-based, human; details: drug 10 μM, 72 hours, WST-1; Table 3
[11] = system: LoVo (Colorectal Adenocarcinoma); test: Cell viability analysis, colon cancer LoVo; type: cell-based, human; details: Homo sapiens, LoVo, 72 h
[12] = system: HI650 (Lung Adenocarcinoma); test: Cell viability analysis, lung cancer HI650; type: cell-based, human; details: Homo sapiens, NCI-H1650, 72 h
BxPC-3 = test: Cell viability analysis, pancreatic cancer BxPC-3; type: cell-based, human; details: Homo sapiens, 72 h; BxPC-3; repeated experiment; read-out: The results of antibiotic drug inhibiting cancer cell lines (cell viability analysis), BxPC-3
[13] = system: MKN-45 (Gastric Adenocarcinoma); test: Cell viability analysis, gastric cancer MKN-45; type: cell-based, human; details: Homo sapiens, MKN-45, 72 h
[14] = system: SAS (Tongue squamous cell carcinoma); test: Cell viability analysis, tongue cancer SAS; type: cell-based, human; details: Homo sapiens, 72 h; SAS; repeated experiment; read-out: The results of antibiotic drug inhibiting cancer cell lines (cell viability analysis), SAS
U-2OS = test: Cell viability analysis, osteosarcoma U-2OS; type: cell-based, human; details: Homo sapiens, 72 h; U2OS; repeated experiment; read-out: The results of antibiotic drug inhibiting cancer cell lines (cell viability analysis), U2OS
[15] = system: HeLa (Cervix Adenocarcinoma); test: Cell viability analysis, cervical cancer HeLa; type: cell-based, human; details: Homo sapiens, HeLa, 72 h, HeLa
[16] = system: BCC (basal cell carcinoma); test: Cell viability analysis, skin cancer BCC; type: cell-based, human; details: Homo sapiens, 72 h; BCC; repeated experiment; read-out: The results of antibiotic drug inhibiting cancer cell lines (cell viability analysis), BCC
[17] = system: A549 (Lung Adenocarcinoma); test: Cell viability analysis, lung cancer A549; type: cell-based, human; details: Homo sapiens, A549, 72 h
[18] = MCF-7, repeated experiment, read-out: The results of antibiotic drug inhibiting cancer cell lines (cell viability analysis), MCF-7
[19] = drug 10 μM, 72 hours, WST-1, OD450 nm, read-out: cell viability (survival rate), MCF7
[20] = drug 10 μM, 72 hours, WST-1, OD450 nm, read-out: cell viability (survival rate), TSGH
[21] = PC-3, repeated experiment, read-out: The results of antibiotic drug inhibiting cancer cell lines (cell viability analysis), PC-3
[22] = drug 10 μM, 72 hours, WST-1, OD450 nm, read-out: cell viability (survival rate), PC3
[23] = A375, repeated experiment, read-out: The results of antibiotic drug inhibiting cancer cell lines (cell viability analysis), A375
[24] = drug 10 μM, 72 hours, WST-1, OD450 nm, read-out: cell viability (survival rate), A375
[25] = AGS, repeated experiment, read-out: The results of antibiotic drug inhibiting cancer cell lines (cell viability analysis), AGS
[26] = drug 10 μM, 72 hours, WST-1, OD450 nm, read-out: cell viability (survival rate), AGS
[27] = read-out: The results of antibiotic drug inhibiting cancer cell lines (cell viability analysis), LoVo, repeated experiment
[28] = read-out: cell viability (survival rate), LoVo, drug 10 μM, 72 hours, WST-1, OD450 nm
[29] = H1650, repeated experiment, read-out: The results of antibiotic drug inhibiting cancer cell lines (cell viability analysis), H1650
[30] = drug 10 μM, 72 hours, WST-1, OD450 nm, read-out: cell viability (survival rate), H1650
[31] = MKN-45, repeated experiment, read-out: The results of antibiotic drug inhibiting cancer cell lines (cell viability analysis), MKN-45
[32] = drug 10 μM, 72 hours, WST-1, OD450 nm, read-out: cell viability (survival rate), MKN-45
[33] = repeated experiment, read-out: The results of antibiotic drug inhibiting cancer cell lines (cell viability analysis), HeLa
[34] = drug 10 μM, 72 hours, WST-1, OD450 nm, read-out: cell viability (survival rate), HeLa
[35] = A549, repeated experiment, read-out: The results of antibiotic drug inhibiting cancer cell lines (cell viability analysis), A549
[36] = drug 10 μM, 72 hours, WST-1, OD450 nm, read-out: cell viability (survival rate), A549

SMILES | viability at 10 µM [1, 18] [%] | viability at 10 µM [1, 19] [%] | viability at 10 µM [2] [%] | viability at 10 µM (TOV-21G) [%] | viability at 10 µM [3] [%] | viability at 10 µM [4, 20] [%] | viability at 10 µM [5] [%] | viability at 10 µM [6, 21] [%] | viability at 10 µM [6, 22] [%] | viability at 10 µM (NIH: OVCAR-3) [%] | viability at 10 µM (AsPC-1) [%] | viability at 10 µM (T24) [%] | viability at 10 µM [7] [%] | viability at 10 µM [8, 23] [%] | viability at 10 µM [8, 24] [%] | viability at 10 µM [9, 25] [%] | viability at 10 µM [9, 26] [%] | viability [10] [%] | inhibition effect on different cancer cell lines (cancer cell lines) | viability at 10 µM [11, 27] [%] | also measured
CC(C)(C)CC(C)(C)c1ccc(O)c(Cc2ccc(Cl)cc2Cl)c1 [Clofoctol] | 83 | 48.1 | 105 | 73.1 | 83 | 72.3 | 102 | 110 | 63.4 | 97.8 | 78.7 | 90.8 | 135 | 109 | 34.5 | 83.9 | 86.7 | 76.6 | significant inhibition effect | 67.1 | viability at 10 µM ([4]; TSGH-8301, repeated experiment, read-out: The results of antibiotic drug inhibiting cancer cell lines (cell viability analysis), TSGH-8301): 109%; viability at 10 µM [11, 28]: 74.7%; viability at 10 µM [12, 29]: 69.6%; viability at 10 µM [12, 30]: 77%; viability at 10 µM (BxPC-3): 65.8%; viability at 10 µM [13, 31]: 117%; viability at 10 µM [13, 32]: 73.6%; viability at 10 µM [14]: 73.2%; viability at 10 µM (U-2OS): 74.9%; viability at 10 µM [15, 33]: 98%; viability at 10 µM [15, 34]: 58%; viability at 10 µM [16]: 94.6%; viability at 10 µM [17, 35]: 90.6%; viability at 10 µM [17, 36]: 55.6%
CCc1cc2c(cc1CC)CC(NC[C@H](O)c1ccc(O)c3[nH]c(=O)ccc13)C2 [Indacaterol Maleate] | 72.5 | 68.7 | 82.6 | 95.3 | 87.2 | 56 | 103 | 100 | 55.5 | 79.3 | 85.4 | 122 | 97.6 | 87.2 | 45.7 | 50.2 | 54.1 | 91.9 | significant inhibition effect | 79.1 | viability at 10 µM [11, 28]: 61.4%; viability at 10 µM [12, 29]: 86.6%; viability at 10 µM [12, 30]: 36%; viability at 10 µM (BxPC-3): 91.4%; viability at 10 µM [13, 31]: 84.5%; viability at 10 µM [13, 32]: 30.3%; viability at 10 µM [14]: 61.7%; viability at 10 µM (U-2OS): 62.6%; viability at 10 µM [15, 33]: 96.6%; viability at 10 µM [15, 34]: 71.8%; viability at 10 µM [16]: 82.1%; viability at 10 µM [17, 35]: 79.6%; viability at 10 µM [17, 36]: 65.1%
